Results published in patent publication US8785460B2, “Tricyclic compounds and use thereof” (Takeda Pharmaceutical Company Limited, priority 2008, dated 2014).

Experiments:
human CRF1 receptor = target: T1, human CRF1 receptor (Homo sapiens, UniProt P34998); assay: Measurement of CRF Binding Inhibitory Rate (receptor binding experiment with 125I-CRF); conditions: human CRF1 receptor expressing CHO cellular membrane fraction, 50 pM 125I-CRF, room temperature 1.5 hr, 0.05 nM to 10 μM of compound; read-out: IC50 values (CRF binding inhibition)
T1 construct: expressed in transfected cells; host or cells: CHO cells (membrane fraction)
T1 sequence (P34998 24-415): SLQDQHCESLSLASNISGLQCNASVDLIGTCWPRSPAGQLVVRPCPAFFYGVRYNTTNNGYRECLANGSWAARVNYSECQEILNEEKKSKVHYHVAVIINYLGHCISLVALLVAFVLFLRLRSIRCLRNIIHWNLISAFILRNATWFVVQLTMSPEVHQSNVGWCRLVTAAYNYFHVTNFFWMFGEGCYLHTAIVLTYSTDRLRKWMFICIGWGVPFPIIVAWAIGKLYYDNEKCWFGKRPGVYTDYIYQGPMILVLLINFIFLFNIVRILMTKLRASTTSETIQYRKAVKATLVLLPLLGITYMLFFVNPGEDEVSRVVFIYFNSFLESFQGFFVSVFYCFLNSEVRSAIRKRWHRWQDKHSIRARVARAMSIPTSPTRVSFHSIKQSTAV

SMILES | IC50 (human CRF1 receptor) | melting point
CCC(OC(C)=O)c1ccc(Cl)c2nc3n(c12)CCCN3c1ccc(C(C)(C)O)cc1Cl (centres unmarked) [Example 252, 1-{9-Chloro-1-[2-chloro-4-(1-hydroxy-1-methylethyl)phenyl]-1,2,3,4-tetrahydropyrimido[1,2-a]benzimidazol-6-yl}propyl acetate] | < 1 µM | 184 to 186 °C
CCC(CC)c1ccc(Cl)c2nc3n(c12)CCCCN3c1ccc(OC)nc1OC [Example 28, 10-Chloro-1-(2,6-dimethoxypyridin-3-yl)-7-(1-ethylpropyl)-2,3,4,5-tetrahydro-1H-[1,3]diazepino[1,2-a]benzimidazole] | < 1 µM | 85 to 88 °C
CCN(CC)c1cccc2nc3n(c12)CC(N)CCN3c1ccc(Cl)cc1Cl (centres unmarked) [Example 363, 1-(2,4-Dichlorophenyl)-N^7,N^7-diethyl-2,3,4,5-tetrahydro-1H-[1,3]diazepino[1,2-a]benzimidazole-4,7-diamine] | < 1 µM | 149 to 151 °C
Cc1cc(Cl)cc(Cl)c1N1CCCn2c1nc1c(Cl)ccc(C(O)(C3CC3)C3CC3)c12 [Example 138, [9-Chloro-1-(2,4-dichloro-6-methylphenyl)-1,2,3,4-tetrahydropyrimido[1,2-a]benzimidazol-6-yl](dicyclopropyl)methanol] | < 1 µM | 210 to 212 °C
CCC(COC)c1ccc(Cl)c2nc3n(c12)CCCN3c1ccc(Cl)cc1Cl (centres unmarked) [Example 149, 9-Chloro-1-(2,4-dichlorophenyl)-6-[1-(methoxymethyl)propyl]-1,2,3,4-tetrahydropyrimido[1,2-a]benzimidazole] | < 1 µM | 130 to 131 °C
CCC(CC(C)=O)c1ccc(Cl)c2nc3n(c12)CCCN3c1ccc(Cl)cc1Cl (centres unmarked) [Example 452, 4-[9-Chloro-1-(2,4-dichlorophenyl)-1,2,3,4-tetrahydropyrimido[1,2-a]benzimidazol-6-yl]hexan-2-one] | < 1 µM | 195 to 197 °C
Clc1ccc(N2CCCn3c2nc2c(Cl)ccc(N(C4CC4)C4CC4)c23)c(Cl)c1 [Example 320, 9-Chloro-N,N-dicyclopropyl-1-(2,4-dichlorophenyl)-1,2,3,4-tetrahydropyrimido[1,2-a]benzimidazol-6-amine] | < 1 µM | 211 to 213 °C
CCC(CO)c1ccc(Cl)c2nc3n(c12)CCCN3c1ccc(Cl)cc1Cl (centres unmarked) [Example 147, 2-[9-Chloro-1-(2,4-dichlorophenyl)-1,2,3,4-tetrahydropyrimido[1,2-a]benzimidazol-6-yl]butan-1-ol] | < 1 µM | 162 to 164 °C
CCC(OCC(F)(F)F)c1ccc(Cl)c2nc3n(c12)CCCN3c1ccc(N(C)C)nc1C (centres unmarked) [Example 167, 5-{9-Chloro-6-[1-(2,2,2-trifluoroethoxy)propyl]-3,4-dihydropyrimido[1,2-a]benzimidazol-1(2H)-yl}-N,N,6-trimethylpyridin-2-amine] | < 1 µM | 144 to 146 °C
COc1ccc(N2CCCn3c2nc2c(Cl)ccc(C(OC)C(F)(F)F)c23)c(C)n1 (centres unmarked) [Example 280, 9-Chloro-1-(6-methoxy-2-methylpyridin-3-yl)-6-(2,2,2-trifluoro-1-methoxyethyl)-1,2,3,4-tetrahydropyrimido[1,2-a]benzimidazole] | < 1 µM | 144 to 146 °C
CCC(NC(=O)C(F)F)c1ccc(Cl)c2nc3n(c12)CCCN3c1c(Cl)cc(Cl)cc1Cl (centres unmarked) [Example 409, N-{1-[9-Chloro-1-(2,4,6-trichlorophenyl)-1,2,3,4-tetrahydropyrimido[1,2-a]benzimidazol-6-yl]propyl}-2,2-difluoroacetamide] | < 1 µM | 211 to 213 °C
CC(C)(CO)c1ccc(Cl)c2nc3n(c12)CCCN3c1ccc(Cl)cc1Cl [Example 148, 2-[9-Chloro-1-(2,4-dichlorophenyl)-1,2,3,4-tetrahydropyrimido[1,2-a]benzimidazol-6-yl]-2-methylpropan-1-ol] | < 1 µM | 176 to 177 °C
CCC(OC(C)=O)c1ccc(Cl)c2nc3n(c12)CCCCN3c1ncc(Cl)cc1Cl (centres unmarked) [Example 329, 1-[10-Chloro-1-(3,5-dichloropyridin-2-yl)-2,3,4,5-tetrahydro-1H-[1,3]diazepino[1,2-a]benzimidazol-7-yl]propyl acetate] | < 1 µM | 158 to 160 °C
CCN(CC)c1cccc2nc3n(c12)CC(CO)N3c1ccc(Cl)cc1Cl (centres unmarked) [Example 76, [1-(2,4-Dichlorophenyl)-5-(diethylamino)-2,3-dihydro-1H-imidazo[1,2-a]benzimidazol-2-yl]methanol] | < 1 µM | 187 to 190 °C
CCC(CC)c1ccc(Cl)c2nc3n(c12)CCCCN3c1ccc(N(C)C)cc1OC(F)(F)F [Example 53, 4-[10-Chloro-7-(1-ethylpropyl)-2,3,4,5-tetrahydro-1H-[1,3]diazepino[1,2-a]benzimidazol-1-yl]-N,N-dimethyl-3-(trifluoromethoxy)aniline] | < 1 µM | 158 to 159 °C
CCC(OC1CC1)c1ccc(Cl)c2nc3n(c12)CCCN3c1ccc(Cl)cc1Cl (centres unmarked) [Example 306, 9-Chloro-6-[1-(cyclopropyloxy)propyl]-1-(2,4-dichlorophenyl)-1,2,3,4-tetrahydropyrimido[1,2-a]benzimidazole] | < 1 µM | 147 to 149 °C
CCN(CC)c1cccc2nc3n(c12)CCCNC3c1ccc(Cl)cc1Cl (centres unmarked) [Example 509, 1-(2,4-Dichlorophenyl)-N,N-diethyl-2,3,4,5-tetrahydro-1H-[1,4]diazepino[1,2-a]benzimidazol-7-amine] | < 1 µM | 186 to 188 °C
CCCOc1ccc(N2CCCn3c2nc2c(Cl)ccc(C(OC(F)F)C(F)(F)F)c23)c(C)n1 (centres unmarked) [Example 289, 9-Chloro-6-[1-(difluoromethoxy)-2,2,2-trifluoroethyl]-1-(2-methyl-6-propoxypyridin-3-yl)-1,2,3,4-tetrahydropyrimido[1,2-a]benzimidazole] | < 1 µM | 156 to 158 °C
CCC(c1ccc(Cl)c2nc3n(c12)CCCN3c1c(C)nc(OC)nc1C)C(F)F (centres unmarked) [Example 222, 9-Chloro-6-[1-(difluoromethyl)propyl]-1-(2-methoxy-4,6-dimethylpyrimidin-5-yl)-1,2,3,4-tetrahydropyrimido[1,2-a]benzimidazole] | < 1 µM | 181 to 183 °C
CCN(CC)c1cccc2nc3n(c12)CC(O)CN3c1ccc(Cl)cc1Cl (centres unmarked) [Example 77, 1-(2,4-Dichlorophenyl)-6-(diethylamino)-1,2,3,4-tetrahydropyrimido[1,2-a]benzimidazol-3-ol] | < 1 µM | 239 to 242 °C
CCC(OC)c1ccc(Cl)c2nc3n(c12)CCCN3c1ccc(Cl)cc1C(F)(F)F (centres unmarked) [Example 133, 9-Chloro-1-[4-chloro-2-(trifluoromethyl)phenyl]-6-(1-methoxypropyl)-1,2,3,4-tetrahydropyrimido[1,2-a]benzimidazole] | < 1 µM | 202 to 203 °C
CCC(CC)c1ccc(Cl)c2nc3n(c12)CCN3c1ccc(Cl)cc1Br [Example 5, 1-(2-Bromo-4-chlorophenyl)-8-chloro-5-(1-ethylpropyl)-2,3-dihydro-1H-imidazo[1,2-a]benzimidazole] | < 1 µM | 169 to 171 °C
